Measured values published in patent US20070099856A1, “Combined treatment with docetaxel and an epidermal growth factor receptor kinase inhibitor using an intermittent dosing regimen” (priority 2005, published 2007).

What was measured:
[1] = test system: patients with advanced solid tumors; assay: Phase I dose escalation Arm B: DOC every 21 days plus erlotinib days 2-16; assay type: in vivo, human
Text: (§1) One explanation is antagonism due to TKI-induced G1 arrest, reducing cell cycle phase-dependent activity of chemotherapy (see FIG. 1). We hypothesized that pharmacodynamic separation by intermittent delivery of HER1/EGFR TKI with chemotherapy might increase efficacy.
(§2) Erlotinib (TARCEVA™) was obtained from OSI Pharmaceuticals, Inc. Melville, N.Y.). Docetaxel (TAXOTERE®) is manufactured and sold by Aventis Pharmaceuticals Inc.

[2] = test system: patients with advanced solid tumors; assay: Phase I dose escalation Arm A: DOC every 21 days plus weekly erlotinib days 2, 9, 16; assay type: in vivo, human
Text: as §1, §2

[3] = test system: advanced, treatment-refractory NSCLC; settings: monotherapy, phase III; cited from earlier work
NSCLC = settings: first-line, in combination with standard chemotherapy, NSCLC phase III; cited from earlier work

Row | SMILES | Arm B MTD, erlotinib ([1]; day 2-16, combined with DOC 70 mg/m^2) [mg] | Arm A MTD, erlotinib ([2]; weekly (days 2, 9, 16), combined with DOC 70 mg/m^2) [mg] | Survival [3] | Survival (NSCLC) | Arm B MTD, DOC ([1]; IV every 21 days, combined with erlotinib 200 mg day 2-16) [mg/m^2] | Arm A MTD, DOC ([2]; IV every 21 days, combined with weekly erlotinib 600 mg) [mg/m^2]
1 | C#Cc1cccc(Nc2ncnc3cc(OCCOC)c(OCCOC)cc23)c1 [erlotinib, [6,7-bis(2-methoxyethoxy)-4-quinazolin-4-yl]-(3-ethynylphenyl)amine] | 200 | 600 | significantly prolonged survival | did not improve survival |  | 
2 | COc1cc2ncnc(Nc3ccc(F)c(Cl)c3)c2cc1OCCCN1CCOCC1 [gefitinib] |  |  |  | did not improve survival |  | 
3 | CC(=O)O[C@@]12CO[C@@H]1C[C@H](O)[C@@]1(C)C(=O)[C@H](O)C3=C(C)[C@@H](OC(=O)[C@H](O)[C@@H](NC(=O)OC(C)(C)C)c4ccccc4)C[C@@](O)([C@@H](OC(=O)c4ccccc4)[C@H]21)C3(C)C [DOC, docetaxel] |  |  |  |  | 70 | 70
